# How the values were obtained:
# [1] = test system: IL6, IL1b, S100A8, TNFα, Reg3g, IL17a mRNA; experiment: Colonic mRNA levels of cytokines and biomarkers by real-time PCR in DSS-induced colitis mice; format: in vivo, mouse; conditions: 126 and 252 mg/kg per day, relative to HPRT
# Description: The C56BL/6J mouse is a strain susceptible to DSS-induced colitis. To evaluate the efficacy and dosage of Compound B in treatment of DSS-induced colitis, inflammation was induced in 30 9-week old C56BL/6J mice by adding 1.5% DSS to the drinking water for 7 days. The mice were fed a standard chow diet that consisted of 30 weight percent wheat. The mice were divided into three groups of 10, and for each day of DSS administration each group was administered via oral gavage either (1) 100 μL corn oil per day (Control), (2) 126 mg/kg Compound B (dissolved in 100 μL corn oil) per day (“Compound B-Low” or “Compound B-L”), or (3) 252 mg/kg Compound B (dissolved in 100 μL corn oil) per day (“Compound B-High” or “Compound B-H”). Following the 7-day period of DSS induction, mice were sacrificed and their intestinal tissue was used for histopathological and gene expression analysis.
# To evaluate the effect of treatment with Compound B on the levels of proinflammatory cytokines and biomarkers, total RNA was extracted from small and large intestinal tissue samples (>100 mg). cDNA was synthesized by reverse transcription and analyzed by real-time PCR. Results were normalized to the level of the housekeeping gene hypoxanthine guanine phosphoribosyltransferase (HPRT). The relative mRNA expression of the tested gene relative to HPRT expression was calculated using the 2^−ΔΔCt method as described in Pickert et al., J. Exp. Med., 2009, 206:1465-1472. Interleukin 6 (IL6), IL1b, calgranulin-A (S100A8), and tumor necrosis factor α (TNFα) have been implicated as mediators of IBD, including both ulcerative colitis and Crohn's disease. IL6, IL1b, and calgranulin-A are prominently expressed in inflammatory macrophages. IL22-dependent regenerating islet-derived 3 gamma (Reg3g) is induced in response to inflammation in epithelial cells. IL17 is secreted by Th17 T helper cells and innate lymphoid cells type 3 (ILC3).
# plasma insulin = experiment: Plasma insulin at 24 h in lean male SPD rats; format: in vivo, rat; conditions: Compound A 74 mg/kg or Compound B 84 mg/kg oral, non-significant
# Description: (§1) To establish the acute effects of oral administration of Compound A and Compound B upon active GLP-1 and insulin concentrations, lean (about 300 g) male Sprague-Dawley (SPD) rats were divided into groups (n=6-8) and fed 74 and 84 mg/kg body weight of Compound A or Compound B respectively, either with or without concurrent administration of a dipeptidyl peptidase 4 (DPP-4) inhibitor 60 minutes prior to an oral glucose tolerance test (OGTT) as outlined below. Parallel groups receiving either corn oil alone (corn oil+vehicle, n=10) or corn oil and a DPP-4 inhibitor (“DPP-4 i”) (corn oil+ (DPP-4 i), n=10) were included as controls. The DPP-4 inhibitor was linagliptin.
# (§2) A second oral dose of 74 and 84 mg/kg bodyweight of Compound A or Compound B respectively was administered at 240 minutes and ad lib feeding was initiated. A second dose of DPP-4 inhibitor was administered at 480 mins prior to lights out. Blood samples were collected at 24 h for measurement of active GLP-1 and insulin. All values are mean, figures depict mean values (SEM).
# active GLP-1 = experiment: Active GLP-1 during oral glucose tolerance test (OGTT) and at 24 h in lean male SPD rats; format: in vivo, rat
# Description: as §1, §2
# atherogenic lipids = conditions: APOE*3.CETP mice; cited from earlier work
# [2] = Intestinal tissue distribution of radioactivity by quantitative whole-body autoradiography (QWBA); format: in vivo; conditions: male albino rat, single oral [14C]-Compound B 50 mg/kg
# Description: This study was conducted to determine the intestinal tissue distribution of radioactivity in male albino rats following a single oral administration of [14C]-Compound B using quantitative whole-body autoradiography (QWBA). The tissue distribution in rats following a single oral dose of [14C]-Compound B at 50 mg/kg (ca 5 MBq/kg) was studied by QWBA analysis up to 168 hours after dosing.
# [3] = test system: B6.V-Lepob/Jrj mice (ob/ob); experiment: Glucose tolerance (0-120 mins) after 28-day treatment in ob/ob mice; format: in vivo, mouse; conditions: 28 days
# Description: This study was carried out to assess the effects of chronic treatment with Compound B or Compound A on glucose tolerance in a T2DM rodent model.
# For assessing the effects of Compound B, B6.V-Lepob/Jrj mice (ob/ob) mice were administered Compound B at one of 2 doses, 125 and 250 mg/kg for 28 days. […] After the oral glucose load, plasma glucose was measured at multiple time points from and AUC (0-120 mins) for glucose was calculated.
# [4] = 1 hour, *affected by high levels of radioactivity in adjacent contents
# [5] = 2 hours, *affected by high levels of radioactivity in adjacent contents
# [6] = 4 hours, *affected by high levels of radioactivity in adjacent contents
# [7] = 8 hours, *affected by high levels of radioactivity in adjacent contents
structure (smiles),measurement,setting,value
"CC/C=C\C/C=C\C/C=C\C/C=C\C/C=C\CCCCSC(CC)(CC)C(=O)O [Compound B, 2-ethyl-2-((5Z,8Z,11 Z,14Z,17Z)-icosa-5,8,11,14,17-pentaenylthio)butanoic acid]",Expression of IL17a,[1],lack of change
same,mRNA levels of IL1b compared to untreated mice,[1],dose-dependent decrease
same,mRNA levels of IL6 compared to untreated mice,[1],dose-dependent decrease
same,mRNA levels of Reg3g compared to untreated mice,[1],dose-dependent decrease
same,mRNA levels of S100A8 compared to untreated mice,[1],dose-dependent decrease
same,mRNA levels of TNFα compared to untreated mice,[1],dose-dependent decrease
same,Increase in plasma insulin concentration at 24 h versus corn oil+vehicle and corn oil+DPP4 inhibitor,plasma insulin; compound alone,25%
same,Increase in plasma insulin concentration at 24 h versus corn oil+vehicle and corn oil+DPP4 inhibitor,plasma insulin; in combination with DPP4 inhibitor,40%
same,Increase in active GLP-1 (AUC 0-60 mins) versus corn oil+vehicle,"active GLP-1; Compound B 84 mg/kg oral in combination with DPP4 inhibitor (linagliptin), OGTT, p<0.05",> 2 fold
same,Effect on active GLP-1 concentration at 24 h versus corn oil+vehicle,"active GLP-1; in combination with DPP4 inhibitor, Compound A 74 mg/kg or Compound B 84 mg/kg oral, two doses",significantly (p<0.01) increased
same,Effect on atherogenic lipids,atherogenic lipids,significantly reduce atherogenic lipids
same,Time of peak concentrations in the small intestinal mucosa,[2],4 h
same,"Radioactivity concentration, Caecum mucosa",[2]; 1 hour,1.04 μg equivalents of Compound B/g of tissue
same,"Radioactivity concentration, Large intestine mucosa",[2]; 1 hour,0.740 μg equivalents of Compound B/g of tissue
same,"Radioactivity concentration, Oesophageal wall",[2]; 1 hour,5.83 μg equivalents of Compound B/g of tissue
same,"Radioactivity concentration, Rectum mucosa",[2]; 1 hour,0.417 μg equivalents of Compound B/g of tissue
same,"Radioactivity concentration, Stomach mucosa (fundus)",[2]; 1 hour,8.08 μg equivalents of Compound B/g of tissue
same,"Radioactivity concentration, Small intestine mucosa",[2]; [4],127* μg equivalents of Compound B/g of tissue
same,"Radioactivity concentration, Stomach mucosa (non-fundic)",[2]; [4],17.3* μg equivalents of Compound B/g of tissue
same,"Radioactivity concentration, Caecum mucosa",[2]; 2 hours,1.73 μg equivalents of Compound B/g of tissue
same,"Radioactivity concentration, Large intestine mucosa",[2]; 2 hours,0.332 μg equivalents of Compound B/g of tissue
same,"Radioactivity concentration, Oesophageal wall",[2]; 2 hours,1.72 μg equivalents of Compound B/g of tissue
same,"Radioactivity concentration, Rectum mucosa",[2]; 2 hours,0.883 μg equivalents of Compound B/g of tissue
same,"Radioactivity concentration, Stomach mucosa (fundus)",[2]; 2 hours,4.31 μg equivalents of Compound B/g of tissue
same,"Radioactivity concentration, Small intestine mucosa",[2]; [5],56.5* μg equivalents of Compound B/g of tissue
same,"Radioactivity concentration, Stomach mucosa (non-fundic)",[2]; [5],28.1* μg equivalents of Compound B/g of tissue
same,"Radioactivity concentration, Large intestine mucosa",[2]; 4 hours,0.920 μg equivalents of Compound B/g of tissue
same,"Radioactivity concentration, Oesophageal wall",[2]; 4 hours,1.29 μg equivalents of Compound B/g of tissue
same,"Radioactivity concentration, Rectum mucosa",[2]; 4 hours,1.03 μg equivalents of Compound B/g of tissue
same,"Radioactivity concentration, Stomach mucosa (fundus)",[2]; 4 hours,5.38 μg equivalents of Compound B/g of tissue
same,"Radioactivity concentration, Caecum mucosa",[2]; [6],93.1* μg equivalents of Compound B/g of tissue
same,"Radioactivity concentration, Small intestine mucosa",[2]; [6],158* μg equivalents of Compound B/g of tissue
same,"Radioactivity concentration, Stomach mucosa (non-fundic)",[2]; [6],300* μg equivalents of Compound B/g of tissue
same,"Radioactivity concentration, Oesophageal wall",[2]; 8 hours,5.86 μg equivalents of Compound B/g of tissue
same,"Radioactivity concentration, Small intestine mucosa",[2]; 8 hours,42.7 μg equivalents of Compound B/g of tissue
same,"Radioactivity concentration, Stomach mucosa (fundus)",[2]; 8 hours,7.84 μg equivalents of Compound B/g of tissue
same,"Radioactivity concentration, Caecum mucosa",[2]; [7],112* μg equivalents of Compound B/g of tissue
same,"Radioactivity concentration, Large intestine mucosa",[2]; [7],120* μg equivalents of Compound B/g of tissue
same,"Radioactivity concentration, Rectum mucosa",[2]; [7],3.57* μg equivalents of Compound B/g of tissue
same,"Radioactivity concentration, Stomach mucosa (non-fundic)",[2]; [7],252* μg equivalents of Compound B/g of tissue
same,"Radioactivity concentration, Large intestine mucosa",[2]; 1 day,2.63 μg equivalents of Compound B/g of tissue
same,"Radioactivity concentration, Oesophageal wall",[2]; 1 day,2.25 μg equivalents of Compound B/g of tissue
same,"Radioactivity concentration, Rectum mucosa",[2]; 1 day,0.870 μg equivalents of Compound B/g of tissue
same,"Radioactivity concentration, Small intestine mucosa",[2]; 1 day,22.6 μg equivalents of Compound B/g of tissue
same,"Radioactivity concentration, Stomach mucosa (fundus)",[2]; 1 day,1.15 μg equivalents of Compound B/g of tissue
same,"Radioactivity concentration, Stomach mucosa (non-fundic)",[2]; 1 day,3.87 μg equivalents of Compound B/g of tissue
same,"Radioactivity concentration, Caecum mucosa","[2]; 1 day, *affected by high levels of radioactivity in adjacent contents",113* μg equivalents of Compound B/g of tissue
same,"Radioactivity concentration, Caecum mucosa",[2]; 3 days,0.319 μg equivalents of Compound B/g of tissue
same,"Radioactivity concentration, Large intestine mucosa",[2]; 3 days,1.06 μg equivalents of Compound B/g of tissue
same,"Radioactivity concentration, Oesophageal wall",[2]; 3 days,BLQ (Tissue concentration below lower limit of quantification)
same,"Radioactivity concentration, Rectum mucosa",[2]; 3 days,BLQ (Tissue concentration below lower limit of quantification)
same,"Radioactivity concentration, Small intestine mucosa",[2]; 3 days,0.197 μg equivalents of Compound B/g of tissue
same,"Radioactivity concentration, Stomach mucosa (fundus)",[2]; 3 days,BLQ (Tissue concentration below lower limit of quantification)
same,"Radioactivity concentration, Stomach mucosa (non-fundic)",[2]; 3 days,0.253 μg equivalents of Compound B/g of tissue
same,"Radioactivity concentration, Caecum mucosa",[2]; 7 days,0.374 μg equivalents of Compound B/g of tissue
same,"Radioactivity concentration, Large intestine mucosa",[2]; 7 days,0.296 μg equivalents of Compound B/g of tissue
same,"Radioactivity concentration, Oesophageal wall",[2]; 7 days,BLQ (Tissue concentration below lower limit of quantification)
same,"Radioactivity concentration, Rectum mucosa",[2]; 7 days,0.641 μg equivalents of Compound B/g of tissue
same,"Radioactivity concentration, Small intestine mucosa",[2]; 7 days,BLQ (Tissue concentration below lower limit of quantification)
same,"Radioactivity concentration, Stomach mucosa (fundus)",[2]; 7 days,BLQ (Tissue concentration below lower limit of quantification)
same,"Radioactivity concentration, Stomach mucosa (non-fundic)",[2]; 7 days,BLQ (Tissue concentration below lower limit of quantification)
same,AUC (0-120 mins) glucose,[3]; 250 mg/kg once-daily oral gavage,potent and highly significant (p<0.001) reduction
same,Glucose tolerance after 2 g/kg oral glucose load,"[3]; both doses, 125 and 250 mg/kg once-daily oral gavage",improved glucose tolerance

# — patent US20260000632A1, “STRUCTURALLY MODIFIED FATTY ACIDS FOR IMPROVING GLYCEMIC CONTROL AND TREATING INFLAMMATORY BOWEL DISEASE” (Northsea Therapeutics B.V., priority 2018, published 2026)
